Measurements from patent US4000283A, “Compound 3,4,5-trimethoxyphenyl-(3,4-dimethyl-2-pyridyl)-carbonyl” (priority 1974, dated 1976).

What was measured:
[1] = Acute toxicity in mice (i.p., Litchfield and Wilcoxon); assay type: in vivo, albino I.C.R. Swiss mice; conditions: mouse, in vivo, ip, albino I.C.R. Swiss mice, both sexes
Protocol: (§1) The acute toxicity studies were carried out in albino I.C.R. Swiss mice weighing 30 ± 2 g, of both sexes. The products were administered intraperitoneally (i.p). The acute toxicity was calculated according to the method of Litchfield and Wilcoxon.

[2] = test system: acetic acid-induced writhing; assay: Analgesia, acetic acid-induced writhing technique in mice; assay type: in vivo, albino I.C.R. Swiss mice; conditions: for No. of writhes (x ± M.S.E.): Table B-I, control 112.1 ± 4.2; for No. of writhes (x ± M.S.E.) / Number of writhes (x ± M.S.E.): 30 min before acetic acid, counted during 20 min; for Number of writhes (x ± M.S.E.): Table B-II, control 99.6 ± 5.6; for analgesic activity: mice, i.p., compared with dextropropoxyphene
Protocol: The analgesic action was investigated in albino I.C.R. Swiss mice, using the acetic acid-induced writhing technique. Groups each of 10 mice were assembled.
The analgesics were injected intraperitoneally (i.p), and after 30 minutes 0.25 ml of a 1% solution of acetic acid was injected i.p. A control group received acetic acid only. The number of writhes made by each mouse was counted during the 20 minutes following the administration of acetic acid.

[3] = test system: albino I.C.R. Swiss mice; assay: Acute toxicity in mice (i.p., Litchfield and Wilcoxon); assay type: in vivo; conditions: mice
Protocol: as §1

[4] = dextropropoxyphene, 25 mg/kg i.p.

Row | Structure (SMILES) | LD50 [1] [mg/kg] | No. of writhes (x ± M.S.E.) [2, 4] [writhes] | Number of writhes (x ± M.S.E.) [2, 4] [writhes] | Acute toxicity compared with dextropropoxyphene [3] | No. of writhes (x ± M.S.E.) ([2]; Product I, 20 mg/kg i.p.) [writhes] | analgesic activity [2] | Number of writhes (x ± M.S.E.) ([2]; Product II, 40 mg/kg i.p.) [writhes]
1 | CCC(=O)O[C@](Cc1ccccc1)(c1ccccc1)[C@H](C)CN(C)C [Dextropropoxyphene, reference compound] | 140 | 22.8 ± 4.74 | 50.2 ± 4.4 |  |  |  | 
2 | COc1cc(CC2C(C)=C(C)CCN2C)cc(OC)c1OC (centres unmarked) [Product I, 1,3,4-trimethyl-2-(3,4,5-trimethoxybenzyl)-1,2,5,6-tetrahydropyridine] | 154 |  |  | less toxic than dextropropoxyphene | 74.5 ± 4.84 | has analgesic activity but less than that of dextropropoxyphene | 
3 | COc1cc(C(O)c2nccc(C)c2C)cc(OC)c1OC (centres unmarked) [Product II, 3,4,5-trimethoxyphenyl-(3,4-dimethyl-2-pyridyl)carbinol] | 292 |  |  | less toxic than dextropropoxyphene |  | high analgesic activity | 29 ± 7.3
